System: WSU-DLCL2 cells
Assay: RT2 Glucocorticoid signaling PCR array, WSU-DLCL2 (WSU) cell line (Table 4c)
Assay type: cell-based

## C[C@]12C=CC(=O)C=C1CC[C@@H]1[C@@H]2[C@@H](O)C[C@@]2(C)[C@H]1CC[C@]2(O)C(=O)CO [Prednisolone, prednisolone]
Gene ACTB
  Ct Values, ACTB: 14.572
  ΔCT (B2M), ACTB: −4.573
Gene ADARB1
  Ct Values, ADARB1: 26.108
  ΔCT (B2M), ADARB1: 6.963
Gene ADARB1, compared to DMSO
  ΔΔCT, ADARB1: 0.097
Gene AFF1
  Ct Values, AFF1: 27.334
  ΔCT (B2M), AFF1: 8.189
Gene AFF1, compared to DMSO
  ΔΔCT, AFF1: −0.464
Gene AK2
  Ct Values, AK2: 20.433
  ΔCT (B2M), AK2: 1.288
Gene AK2, compared to DMSO
  ΔΔCT, AK2: 0.094
Gene AMPD3
  Ct Values, AMPD3: 27.943
  ΔCT (B2M), AMPD3: 8.798
Gene AMPD3, compared to DMSO
  ΔΔCT, AMPD3: −0.219
Gene ANGPTL4
  Ct Values, ANGPTL4: 30.810
  ΔCT (B2M), ANGPTL4: 11.665
Gene ANGPTL4, compared to DMSO
  ΔΔCT, ANGPTL4: −0.329
Gene ANXA4
  Ct Values, ANXA4: 27.406
  ΔCT (B2M), ANXA4: 8.261
Gene ANXA4, compared to DMSO
  ΔΔCT, ANXA4: −0.025
Gene AQP1
  Ct Values, AQP1: 33.595
  ΔCT (B2M), AQP1: 14.450
Gene ARID68
  Ct Values, ARID68: 26.721
  ΔCT (B2M), ARID68: 7.576
Gene ARID68, compared to DMSO
  ΔΔCT, ARID68: 0.722
Gene ASPH
  Ct Values, ASPH: 21.939
  ΔCT (B2M), ASPH: 2.794
Gene ASPH, compared to DMSO
  ΔΔCT, ASPH: −0.041
Gene ATF4
  Ct Values, ATF4: 19.659
  ΔCT (B2M), ATF4: 0.514
Gene ATF4, compared to DMSO
  ΔΔCT, ATF4: 0.090
Gene B2M (normaliser)
  Ct Values, B2M: 19.145
  ΔCT (B2M), B2M: 0.000
Gene BCL6
  Ct Values, BCL6: 20.898
  ΔCT (B2M), BCL6: 1.753
Gene BCL6, compared to DMSO
  ΔΔCT, BCL6: 0.249
Gene CEBPA
  Ct Values, CEBPA: 27.838
  ΔCT (B2M), CEBPA: 8.693
Gene CEBPA, compared to DMSO
  ΔΔCT, CEBPA: −0.295
Gene CEBPB
  Ct Values, CEBPB: 25.775
  ΔCT (B2M), CEBPB: 6.630
Gene CEBPB, compared to DMSO
  ΔΔCT, CEBPB: 0.814
Gene COL4A2
  Ct Values, COL4A2: 34.328
  ΔCT (B2M), COL4A2: 15.183
Gene CREB1
  Ct Values, CREB1: 22.732
  ΔCT (B2M), CREB1: 3.587
Gene CREB1, compared to DMSO
  ΔΔCT, CREB1: −0.133
Gene CREB3
  Ct Values, CREB3: 24.551
  ΔCT (B2M), CREB3: 5.406
Gene CREB3, compared to DMSO
  ΔΔCT, CREB3: −0.453
Gene CREB3L4
  Ct Values, CREB3L4: 24.437
  ΔCT (B2M), CREB3L4: 5.292
Gene CREB3L4, compared to DMSO
  ΔΔCT, CREB3L4: −0.330
Gene CYB561
  Ct Values, CYB561: 32.971
  ΔCT (B2M), CYB561: 13.826
Gene CYB561, compared to DMSO
  ΔΔCT, CYB561: −3.598
Gene DDIT4
  Ct Values, DDIT4: 22.252
  ΔCT (B2M), DDIT4: 3.107
Gene DDIT4, compared to DMSO
  ΔΔCT, DDIT4: −1.672
Gene DUSP1
  Ct Values, DUSP1: 25.828
  ΔCT (B2M), DUSP1: 6.683
Gene DUSP1, compared to DMSO
  ΔΔCT, DUSP1: 0.454
Gene EDN1
  Ct Values, EDN1: 30.019
  ΔCT (B2M), EDN1: 11.674
Gene EHD3
  Ct Values, EHD3: 27.724
  ΔCT (B2M), EHD3: 8.579
Gene EHD3, compared to DMSO
  ΔΔCT, EHD3: −1.645
Gene FK8PS
  Ct Values, FK8PS: 21.321
  ΔCT (B2M), FK8PS: 2.176
Gene FK8PS, compared to DMSO
  ΔΔCT, FK8PS: −1.247
Gene FOSL2
  Ct Values, FOSL2: 33.647
  ΔCT (B2M), FOSL2: 14.502
Gene FOSL2, compared to DMSO
  ΔΔCT, FOSL2: 2.843
Gene GAPDH
  Ct Values, GAPDH: 16.349
  ΔCT (B2M), GAPDH: −2.796
Gene GDPD1
  Ct Values, GDPD1: 28.235
  ΔCT (B2M), GDPD1: 9.090
Gene GDPD1, compared to DMSO
  ΔΔCT, GDPD1: 0.169
Gene GHRHR
  Ct Values, GHRHR: 37.739
  ΔCT (B2M), GHRHR: 18.644
Gene GHRHR, compared to DMSO
  ΔΔCT, GHRHR: 3.458
Gene GLUL
  Ct Values, GLUL: 31.475
  ΔCT (B2M), GLUL: 12.330
Gene GOT1
  Ct Values, GOT1: 22.841
  ΔCT (B2M), GOT1: 3.696
Gene GOT1, compared to DMSO
  ΔΔCT, GOT1: 0.262
Gene H6PD
  Ct Values, H6PD: 26.197
  ΔCT (B2M), H6PD: 7.052
Gene H6PD, compared to DMSO
  ΔΔCT, H6PD: 0.142
Gene HNRPLL
  Ct Values, HNRPLL: 24.750
  ΔCT (B2M), HNRPLL: 5.605
Gene HNRPLL, compared to DMSO
  ΔΔCT, HNRPLL: 1.026
Gene HPRT1
  Ct Values, HPRT1: 21.361
  ΔCT (B2M), HPRT1: 2.216
Gene IL1RN
  Ct Values, IL1RN: 33.599
  ΔCT (B2M), IL1RN: 14.454
Gene IL1RN, compared to DMSO
  ΔΔCT, IL1RN: 1.298
Gene IL10
  Ct Values, IL10: 34.306
  ΔCT (B2M), IL10: 15.161
Gene KLF9
  Ct Values, KLF9: 30.105
  ΔCT (B2M), KLF9: 10.960
Gene KLF9, compared to DMSO
  ΔΔCT, KLF9: −0.431
Gene KLF13
  Ct Values, KLF13: 23.792
  ΔCT (B2M), KLF13: 4.647
Gene KLF13, compared to DMSO
  ΔΔCT, KLF13: −0.442
Gene LOX
  Ct Values, LOX: 34.511
  ΔCT (B2M), LOX: 15.366
Gene LOX, compared to DMSO
  ΔΔCT, LOX: 0.550
Gene MERTK
  Ct Values, MERTK: 32.524

Reference: patent publication US10456407B2, “Combination therapy for treating cancer” (Epizyme, Inc., priority 2015, dated 2019)
